# Results taken from patent US9145415B2, “Nitrogen-containing heterocyclic compound or salt thereof” (FUJIFILM Corporation, priority 2012, dated 2015).
# Assays:
# [1] = target: T1, human FLT3 protein (FLT3 (WT)) (Homo sapiens, UniProt P36888); assay: FLT3 inhibition test (FLT3 enzyme inhibition, time-resolved fluorescence of substrate peptide phosphorylation); type: biochemical; conditions: FLT3 (WT); read-out: FLT3 (WT) enzyme inhibition activity
# T1 construct: human FLT3 protein (intracellular region, 564 to 993 aa); GST; purchased Carna Biosciences; host or cells: baculovirus expression system
# T1 sequence (P36888 564-993): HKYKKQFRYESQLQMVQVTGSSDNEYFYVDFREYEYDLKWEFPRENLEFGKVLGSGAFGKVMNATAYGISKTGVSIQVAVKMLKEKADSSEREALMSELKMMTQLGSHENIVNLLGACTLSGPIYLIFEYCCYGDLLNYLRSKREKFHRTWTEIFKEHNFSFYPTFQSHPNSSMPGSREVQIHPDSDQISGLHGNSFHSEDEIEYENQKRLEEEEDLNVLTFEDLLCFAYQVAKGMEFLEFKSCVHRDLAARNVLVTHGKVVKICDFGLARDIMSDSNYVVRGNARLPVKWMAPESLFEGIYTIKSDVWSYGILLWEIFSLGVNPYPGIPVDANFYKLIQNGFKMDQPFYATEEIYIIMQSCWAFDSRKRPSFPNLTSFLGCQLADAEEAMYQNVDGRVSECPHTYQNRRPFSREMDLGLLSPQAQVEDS
# Procedure, shortened: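 Substrate peptide phosphorylation detected by time-resolved fluorescence after a 30 min kinase reaction at 25° C with 50 μM ATP (final). Beforehand, compound and FLT3 (WT, 1.2 μg) stood 15 min at 25° C in HEPES buffer pH 7.5 containing MgCl2, NaCl, BSA and DTT.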
# [2] = test system: Molm-13 cells; assay: Leukemia cell proliferation inhibition test (ATPlite), Molm-13; type: cell-based; conditions: Homo sapiens, MOLM-13, MOLM13 cell; read-out: MOLM13 cell proliferation inhibition effect
# Procedure, shortened: (§1)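 Molm-13 or MV4-11 cells at 10,000 cells/well in RPMI with 10% FBS and pen/strep were exposed to serially diluted compound for 72 h at 37 °C, 5% CO2. Total cellular ATP was read by luciferase luminescence. GI50 was taken relative to 0.1% DMSO control, from duplicates by sigmoid non-linear regression.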
# [3] = test system: MV4-11 cells; assay: Leukemia cell proliferation inhibition test (ATPlite), MV4-11; type: cell-based; conditions: Homo sapiens, MV4-11, MV4-11 cell; read-out: MV4-11 cell proliferation inhibition effect
# Procedure, shortened: as §1
IC50 [1],IC50 [2],IC50 [3],Structure (SMILES)
< 0.01 µM,< 0.01 µM,0.01 to 0.1 µM,CCCNc1nc(Nc2ccc3c(OC)nn(COCC)c3c2)ncc1C#CCCCNC(=O)[C@H](C)N(C)C(=O)/C=C/CN(C)C [Compound 22-50]
< 0.01 µM,< 0.01 µM,< 0.01 µM,"CCCNc1nc(Nc2cnc3[nH]nc(C)c3c2)ncc1C#CCCCNC(=O)[C@H](C)N(C)C(=O)/C=C/CN(C)C [Compound 22-51, (S,E)-4-(Dimethylamino)-N-methyl-N-(1-((5-(2-((3-methyl-1H-pyrazolo[3,4-b]pyridin-5-yl)amino)-4-(propylamino)pyrimidin-5-yl)-4-pentyn-1-yl)amino)-1-oxopropan-2-yl)-2-butenamide]"
< 0.01 µM,< 0.01 µM,< 0.01 µM,CCCNc1nc(Nc2ccc3c(OC)nn(CCOC)c3c2)ncc1C#CCCCNC(=O)[C@@H]1CCCN1C(=O)/C=C/CN(C)C [Compound 22-55]
< 0.01 µM,< 0.01 µM,< 0.01 µM,"CCCNc1nc(Nc2cnc3[nH]nc(C)c3c2)ncc1C#CCCCNC(=O)[C@@H]1CCCN1C(=O)/C=C/CN(C)C [Compound 22-56, (S,E)-1-(4-(Dimethylamino)-2-butenoyl)-N-(5-(2-((3-methyl-1H-pyrazolo[3,4-b]pyridin-5-yl)amino)-4-(propylamino)pyrimidin-5-yl)-4-pentyn-1-yl)pyrrolidine-2-carboxamide]"
< 0.01 µM,< 0.01 µM,< 0.01 µM,"CCCNc1nc(Nc2cnc3[nH]nc(OC)c3c2)ncc1C#CCCCNC(=O)[C@@H]1CCCN1C(=O)/C=C/CN(C)C [Compound 22-57, (S,E)-1-(4-(Dimethylamino)-2-butenoyl)-N-(5-(2-((3-methoxy-1H-pyrazolo[3,4-b]pyridin-5-yl)amino)-4-(propylamino)pyrimidin-5-yl)-4-pentyn-1-yl)pyrrolidine-2-carboxamide]"
< 0.01 µM,< 0.01 µM,< 0.01 µM,CCCNc1nc(Nc2ccc3c(F)nn(C)c3c2)ncc1C#CCCCNC(=O)[C@H](C)N(C)C(=O)/C=C/CN(C)C [Compound 22-58]
< 0.01 µM,< 0.01 µM,< 0.01 µM,CCCNc1nc(Nc2ccc3c(F)nn(C)c3c2)ncc1C#CCCCNC(=O)[C@@H]1CCCN1C(=O)/C=C/CN(C)C [Compound 22-59]
< 0.01 µM,< 0.01 µM,< 0.01 µM,CCCNc1nc(Nc2ccc3c(c2)c(F)nn3C)ncc1C#CCCCNC(=O)[C@H](C)N(C)C(=O)/C=C/CN(C)C [Compound 22-60]
< 0.01 µM,< 0.01 µM,< 0.01 µM,CCCNc1nc(Nc2ccc3c(c2)c(F)nn3C)ncc1C#CCCCNC(=O)[C@@H]1CCCN1C(=O)/C=C/CN(C)C [Compound 22-61]
< 0.01 µM,< 0.01 µM,< 0.01 µM,CCCNc1nc(Nc2ccc3[nH]ncc3c2)ncc1C#CCCCNC(=O)[C@@H]1CCCN1C(=O)/C=C/CN(C)C [Compound 22-62]
< 0.01 µM,< 0.01 µM,< 0.01 µM,CCCNc1nc(Nc2ccc3cn[nH]c3c2)ncc1C#CCCCNC(=O)[C@@H]1CCCN1C(=O)/C=C/CN(C)C [Compound 22-63]
< 0.01 µM,< 0.01 µM,< 0.01 µM,CCCNc1nc(Nc2ccc3[nH]nc(OC)c3c2)ncc1C#CCCCNC(=O)[C@H](C)N(C)C(=O)/C=C/CN(C)C [Compound 22-64]
< 0.01 µM,< 0.01 µM,< 0.01 µM,CCCNc1nc(Nc2ccc3c(OC)n[nH]c3c2)ncc1C#CCCCNC(=O)[C@H](C)N(C)C(=O)/C=C/CN(C)C [Compound 22-65]
< 0.01 µM,< 0.01 µM,< 0.01 µM,CCCNc1nc(Nc2cnc3[nH]nc(OC)c3c2)ncc1C#CCCCNC(=O)[C@H](C)N(C)C(=O)/C=C/CN(C)C [Compound 22-66]
< 0.01 µM,< 0.01 µM,< 0.01 µM,CCCNc1nc(Nc2ccc3[nH]nc(OC)c3c2)ncc1C#CCCCNC(=O)[C@@H]1CCCN1C(=O)/C=C/CN(C)C [Compound 22-67]
< 0.01 µM,< 0.01 µM,< 0.01 µM,CCCNc1nc(Nc2ccc3c(OC)n[nH]c3c2)ncc1C#CCCCNC(=O)[C@@H]1CCCN1C(=O)/C=C/CN(C)C [Compound 22-68]
